Reference: patent US4278663A, “Antibiotic X-14868A, B, C and D” (Hoffmann-La Roche Inc., priority 1980, dated 1981)
In brackets after ≈: the same amount, converted by molar mass. Like-named read-outs stand apart in the source and are kept apart here.

Legend:
[1] = system: Staphylococcus aureus 82 ATCC 6538p; experiment: Antimicrobial activity, Minimum Inhibitory Concentration (Table 4); assay type: cell-based; settings: G (+) cocci
[2] = system: Streptococcus faecium ATCC 8043; experiment: as above; assay type: cell-based; settings: G (+) cocci
Bacillus sp.E ATCC 27859 = experiment: as above; assay type: cell-based; settings: G (+) rods
Treponema hyodysenteriae = experiment: Minimum Inhibitory Concentration against Treponema hyodysenteriae (Table 7); assay type: cell-based; settings: for MIC: Brachyspira hyodysenteriae
From the text: The compound was examined for activity against Treponema hyodysenteriae, the etiologic agent of swine dysentery. The results which represent a comparative test following well-known test methods versus a known agent in the treatment and prevention of swine dysentery are set forth in the table below.

[3] = system: Sarcina lutea PCI ATCC 9341; experiment: Antimicrobial activity, Minimum Inhibitory Concentration (Table 4); assay type: cell-based; settings: G (+) cocci
[4] = system: Penicillin digitatum 0184 ATCC 26821; experiment: as above; assay type: cell-based; settings: Molds
[5] = system: Bacillus megaterium 164 ATCC 8011; experiment: as above; assay type: cell-based; settings: G (+) rods
[6] = system: Mycobacterium phlei 78 ATCC 355; experiment: as above; assay type: cell-based; settings: G (+) filaments
[7] = system: Bacillus subtilis NRRL 558; experiment: as above; assay type: cell-based; settings: G (+) rods
[8] = system: in vitro rumen fermentations; experiment: Volatile fatty acid ratio in in vitro rumen fermentations (Table 6); parameters: species or system steer; settings: for VFA Molor Ratio C3 /(C2 +nC4): four hours, 38° C.; for % Positive Control: relative to monensin 50 ppm
Procedure: Rumen fluid is obtained from a steer with a fistulated rumen. The steer is maintained on the following ration:
The rumen fluid is immediately strained through a #30 mesh sieve. For each fermentation, 75 ml of the resulting fluid is added to a 250 ml flask containing the following:
1 g of 80%:20% finely ground grain: hay ration;
60 micromoles of each of the 10 essential amino acids (arginine, histidine, leucine, methionine, threonine, valine, lysine, isoleucine, phenylalanine,tryptophan);
Each flask is incubated at 38° C. in a shaking water bath equipped with a gassing hood. Carbon dioxide is continuously passed through the hood. […] The resulting fluid is permitted to sit at room temperature for 30 minutes. The fluid is filtered through a […] Millipore filter and refrigerated until gas-liquid chromatographic analysis for volatile fatty acids.

[9] = system: Candida albicans 155 NRRL 477; experiment: Antimicrobial activity, Minimum Inhibitory Concentration (Table 4); assay type: cell-based; settings: Yeast
ruminants = experiment: Growth promotion / efficiency of feed utilization in ruminants; assay type: in vivo; settings: result in words
[10] = system: Streptomyces cellulosae 097 ATCC 3313; experiment: Antimicrobial activity, Minimum Inhibitory Concentration (Table 4); assay type: cell-based; settings: G (+) filaments
[11] = system: Saccharomyces cerevisiae 90 NRRL 4226; experiment: as above; assay type: cell-based; settings: Yeast
[12] = system: Paecilomyces varioti M16 ATCC 26820; experiment: as above; assay type: cell-based; settings: Molds

In the case of `CO[C@@H]1[C@@H](OC)[C@H](C)[C@@](O)(CC(=O)O)O[C@H]1[C@H](C)[C@H]1O[C@@]2(CC[C@@](C)([C@H]3CC[C@@](C)([C@@H]4O[C@@H]([C@H]5O[C@](C)(O)[C@H](C)C[C@@H]5C)C[C@@H]4O[C@@H]4C[C@H](OC)[C@@H](OC)[C@H](C)O4)O3)O2)C[C@H](O)[C@H]1C.N` [Antibiotic X-14868A], the “Minimum Inhibitory Concentration” value [1] was 6.25 µg/mL, the “Minimum Inhibitory Concentration” value [2] was 0.313 µg/mL and the “Minimum Inhibitory Concentration” value (Bacillus sp.E ATCC 27859) was 0.39 µg/mL. For the same molecule, the “Minimum Inhibitory Concentration, Mean” value (Treponema hyodysenteriae; mean of four strains) was 0.05 meg/ml, the “Minimum Inhibitory Concentration” value (Treponema hyodysenteriae; strain B 169) was 0.05 meg/ml and the “Minimum Inhibitory Concentration” value (Treponema hyodysenteriae; strain H 140) was 0.05 meg/ml. For the same molecule, the “Minimum Inhibitory Concentration” value (Treponema hyodysenteriae; strain H-78) was 0.05 meg/ml, the “Minimum Inhibitory Concentration” value (Treponema hyodysenteriae; strain SQ 2) was 0.05 meg/ml and the “Minimum Inhibitory Concentration” value [3] was 12.5 µg/mL. The “Minimum Inhibitory Concentration” value [4] was 1000 µg/mL, the “Minimum Inhibitory Concentration” value [5] was 12.5 µg/mL and the “Minimum Inhibitory Concentration” value [6] was 12.5 µg/mL. The “Minimum Inhibitory Concentration” value [7] was 12.5 µg/mL, the “VFA Molor Ratio C3 /(C2 +nC4)” value ([8]; 5 ppm) was 0.323 and the “% Positive Control” value ([8]; 5 ppm) was 82.5%. The “VFA Molor Ratio C3 /(C2 +nC4)” value ([8]; 50 ppm) was 0.358, the “% Positive Control” value ([8]; 50 ppm) was 91.2% and the “Minimum Inhibitory Concentration” value [9] was 250 µg/mL. The “efficiency of feed utilization in ruminant animals” value (ruminants; oral) was “increases the efficiency of feed utilization in ruminant animals”, the “activity as a growth promotant in ruminants” value (ruminants) was “exhibit activity as a growth promotant in ruminants” and the “Minimum Inhibitory Concentration” value [10] was 25 µg/mL. For the same molecule, the “Minimum Inhibitory Concentration” value [11] was 1000 µg/mL and the “Minimum Inhibitory Concentration” value [12] was 250 µg/mL.

`CC(C)c1ncc([N+](=O)[O-])n1C` [Ipronidazole, reference compound] was tested, and the MIC (Treponema hyodysenteriae; mean of four strains, read-out: Minimum Inhibitory Concentration, Mean) was 1.1 µg/mL (≈ 6.5 µM), the MIC (Treponema hyodysenteriae; strain B 169, read-out: Minimum Inhibitory Concentration) was 0.63 µg/mL (≈ 3.72 µM) and the MIC (Treponema hyodysenteriae; strain H 140, read-out: Minimum Inhibitory Concentration) was 0.63 µg/mL (≈ 3.72 µM). The MIC (Treponema hyodysenteriae; strain H-78, read-out: Minimum Inhibitory Concentration) was 0.63 µg/mL (≈ 3.72 µM) and the MIC (Treponema hyodysenteriae; strain SQ 2, read-out: Minimum Inhibitory Concentration) was 2.5 µg/mL (≈ 14.8 µM).

With `CC[C@@]1([C@@H]2O[C@@H]([C@H]3O[C@@](O)(CO)[C@H](C)C[C@@H]3C)C[C@@H]2C)CC[C@H]([C@]2(C)CC[C@]3(C[C@H](O)[C@@H](C)[C@@H]([C@@H](C)[C@@H](OC)[C@H](C)C(=O)O)O3)O2)O1` [Monensin, reference compound] the “VFA Molor Ratio C3 /(C2 +nC4)” value ([8]; 50 ppm) was 0.392 and the “% Positive Control” value ([8]; 50 ppm) was 100.0%.
